Converted amounts (≈) assume the structure as drawn. “And” between values parts separate entries of the source, which are not always exact repeats. Equal entries are not always repeated.
Legend:
Rattus norvegicus [1] = conditions: for NOEL / LOEL: Hershberger
Mus musculus = conditions: for LD50: acute
Rattus norvegicus [2] = conditions: for LD50 / LC50: acute
Rattus norvegicus [3] = conditions: subchronic; duration: 13 weeks; oral; diet; M/F; Fischer 344; Deaths + Clinical Observation: Soft stool, Diarrhea Redness around anus + Body Weight Changes: decrease + Food Consumption: decrease + Blood…
[4] = chronic, duration: 103 weeks, inhalation, Fischer 344
[5] = duration: 10 days, injection, subcutaneous, Fischer 344, active + Antiandrogenic + anti-androgenic
[6] = subchronic, duration: 6 weeks, oral, gavage, F, B6C3F1
[7] = subchronic, duration: 6 weeks, oral, gavage, M, B6C3F1
[8] = subchronic, duration: 6 weeks, oral, gavage, F, Osborne-Mendel
[9] = subchronic, duration: 6 weeks, oral, gavage, M, Osborne-Mendel
[10] = repeat dose other, inhalation, Fischer 344
[11] = short-term, duration: 14 days, oral, diet, B6C3F1
[12] = subchronic, duration: 13 weeks, oral, diet, B6C3F1
[13] = chronic, duration: 103 weeks, oral, diet, Fischer 344
[14] = short-term, duration: 14 days, oral, diet, Fischer 344
[15] = subchronic, duration: 13 weeks, oral, diet, Fischer 344
[16] = duration: 10 days, injection, subcutaneous, Sprague-Dawley, active + Androgenic + androgenic
[17] = duration: 10 days, oral, gavage, Wistar, active + Androgenic + androgenic
[18] = duration: 10 days, oral, gavage, wistar, active + Androgenic + androgenic

Q: How did the NOEL (Rattus norvegicus [1]; duration: 7 days, oral, gavage, Wistar, inactive + Negative + anti-androgenic + high dose decreased body wt but no effect on PPS or AST) turn out when Cl.N#Cc1ccc(C2CCCc3cncn32)cc1 (configuration not stated) was run?
A: Its NOEL is 6 mg/kg-day.

Q: Which results are given for CCCCCCCCCCCCCCC1CO1 (configuration not stated) [1,2-Epoxyhexadecane]?
A: LOAEL (Mus musculus; subchronic, duration: 13 weeks, dermal, B6C3F1): 125 mg/kg-day; LD50 (Rattus norvegicus [2]; dermal, occlusive, Sprague-Dawley): 2000 mg/kg; LD50 (Rattus norvegicus [2]; oral, gavage, Sprague-Dawley): > 5000 mg/kg; LOAEL (Rattus norvegicus [2]; subchronic, duration: 90 days, dermal, Fischer 344): 125 mg/kg-day

Q: How did the LD50 (Mus musculus; oral, gavage) turn out when CCCCCCCCCCCCCCCCCCN [1-Octadecanamine] was run?
A: Its LD50 is 1000 mg/kg.

Q: What about the LD50 (Rattus norvegicus [2]; oral, gavage) of the same molecule?
A: Its LD50 is 1000 mg/kg and > 2000 mg/kg.

Q: What about the LD50 (Rattus norvegicus [2]; oral, gavage, Sprague-Dawley) of the same molecule?
A: Its LD50 is 4800 mg/kg.

Q: And the LD50 (Rattus norvegicus [2]; oral, gavage, Wistar)?
A: Its LD50 is no less than 2000 mg/kg.

Q: C=CC [1-Propene] was tested. Which NOAEL (Mus musculus; chronic, duration: 14 weeks, inhalation, B6C3F1) did it give?
A: The NOAEL was 17200 mg/m3.

Q: What about the NOAEL (Mus musculus; chronic, duration: 78 weeks, inhalation, Swiss) of the same molecule?
A: Its NOAEL is no less than 8610 mg/m3.

Q: What about the NOAEL (Mus musculus; chronic, duration: 103 weeks, inhalation, B6C3F1) of the same molecule?
A: Its NOAEL is no less than 17200 mg/m3.

Q: What about the LC50 (Rattus norvegicus [2]; inhalation, Sprague-Dawley) of the same molecule?
A: Its LC50 is greater than 112000 mg/m3.

Q: And the NOAEL (Rattus norvegicus [2]; chronic, duration: 14 weeks, inhalation, Fischer 344)?
A: Its NOAEL is 17200 mg/m3.

Q: And the LOAEL (Rattus norvegicus [2]; [4])?
A: Its LOAEL is 17200 mg/m3.

Q: What about the NOAEL (Rattus norvegicus [2]; [4]) of the same molecule?
A: The NOAEL was 8610 mg/m3.

Q: And the NOAEL (Rattus norvegicus [2]; chronic, duration: 104 weeks, inhalation, Sprague-Dawley)?
A: Its NOAEL is no less than 8610 mg/m3.

Q: What about the NOAEL (Rattus norvegicus [2]; short-term, duration: 4 weeks, inhalation, Fischer 344) of the same molecule?
A: Its NOAEL is 17200 mg/m3.

Q: What does the source list for O=C(c1ccc(O)cc1)c1ccc(O)cc1O [2,4,4'-Trihydroxybenzophenone]?
A: LOEL (Rattus norvegicus [1]; [5]): 300 mg/kg-day; NOEL (Rattus norvegicus [1]; [5]): 100 mg/kg-day

Q: O=S1(=O)CC=CC1 [2,5-Dihydrothiophene 1,1-dioxide] was tested. Which LOAEL (Mus musculus; [6]) did it give?
A: The LOAEL was 316 mg/kg-day.

Q: And the NOAEL (Mus musculus; [6])?
A: The NOAEL was 178 mg/kg-day.

Q: What about the LOAEL (Mus musculus; [7]) of the same molecule?
A: Its LOAEL is 1000 mg/kg-day.

Q: And the NOAEL (Mus musculus; [7])?
A: Its NOAEL is 562 mg/kg-day.

Q: And the LD50 (Rattus norvegicus [2]; oral, gavage, Sprague-Dawley)?
A: Its LD50 is 2880 mg/kg.

Q: What about the NOAEL (Rattus norvegicus [2]; reproduction developmental, duration: 28 days, oral, gavage, Crj:CD, generation: F0) of the same molecule?
A: The NOAEL was 75 mg/kg-day.

Q: What about the NOAEL (Rattus norvegicus [2]; reproduction developmental, duration: 28 days, oral, gavage, Crj:CD, generation: F1) of the same molecule?
A: Its NOAEL is 25 mg/kg-day.

Q: What about the LOAEL (Rattus norvegicus [2]; [8]) of the same molecule?
A: The LOAEL was 178 mg/kg-day.

Q: And the NOAEL (Rattus norvegicus [2]; [8])?
A: The NOAEL was 100 mg/kg-day.

Q: And the LOAEL (Rattus norvegicus [2]; [9])?
A: Its LOAEL is 562 mg/kg-day.

Q: What about the NOAEL (Rattus norvegicus [2]; [9]) of the same molecule?
A: Its NOAEL is 316 mg/kg-day.

Q: Which LD50 (Mus musculus; injection, Intraperitoneal, NMRI) does the source give for C=CC(=O)OCCN(C)C [2-(Dimethylamino)ethyl acrylate] here?
A: The LD50 was 200 mg/kg.

Q: What about the LC50 (Rattus norvegicus [2]; Inhalation, Sprague-Dawley) of the same molecule?
A: The LC50 was 0.066 µg/mL (≈ 0.461 µM).

Q: What about the LD50 (Rattus norvegicus [2]; dermal) of the same molecule?
A: Its LD50 is 891 mg/kg.

Q: What about the LD50 (Rattus norvegicus [2]; dermal, semiocclusive, Sprague-Dawley) of the same molecule?
A: The LD50 was 419 mg/kg.

Q: And the LC50 (Rattus norvegicus [2]; inhalation)?
A: The LC50 was 0.22 µg/mL and < 0.352 µg/mL.

Q: And the LC50 (Rattus norvegicus [2]; inhalation, Wistar)?
A: The LC50 was 0.972 µg/mL (≈ 6.79 µM).

Q: And the LD50 (Rattus norvegicus [2]; injection, Intraperitoneal)?
A: Its LD50 is 183 mg/kg.

Q: What about the LD50 (Rattus norvegicus [2]; oral) of the same molecule?
A: The LD50 was 533 mg/kg.

Q: What about the NOAEL (Rattus norvegicus [2]; developmental, oral, gavage, Crj:CD) of the same molecule?
A: Its NOAEL is 30 mg/kg-day.

Q: What about the NOAEL (Rattus norvegicus [2]; reproduction developmental, duration: 43 days, oral, gavage, Sprague-Dawley) of the same molecule?
A: Its NOAEL is 20 mg/kg-day.

Q: And the NOAEL (Rattus norvegicus [2]; reproduction developmental, duration: 43 days, oral, gavage, Sprague-Dawley, generation: F0)?
A: Its NOAEL is 100 mg/kg-day.

Q: And the NOAEL (Rattus norvegicus [2]; subchronic, duration: 13 weeks, oral, gavage, Sprague-Dawley)?
A: The NOAEL was 10 mg/kg-day.

Q: How did the NOAEL (Mus musculus; repeat dose other, inhalation, B6C3F1) turn out when Clc1ccc(Cl)c(C(Cl)(Cl)Cl)n1 [3,6-Dichloro-2-(trichloromethyl)pyridine] was run?
A: Its NOAEL is 3.47 mg/m3.

Q: What about the LD50 (Rattus norvegicus [2]; oral, gavage) of the same molecule?
A: The LD50 was ≥ 1000 mg/kg and ≤ 2000 mg/kg.

Q: What about the LOAEL (Rattus norvegicus [2]; [10]) of the same molecule?
A: The LOAEL was 14.7 mg/m3.

Q: And the NOAEL (Rattus norvegicus [2]; [10])?
A: The NOAEL was 3.47 mg/m3.

Q: How did the NOEL (Rattus norvegicus [1]; duration: 10 days, oral, gavage, Wistar, inactive + Negative + Negative + anti-androgenic + negative) turn out when CCCCN(CCCC)c1cccc(O)c1 [3-(Dibutylamino)phenol] was run?
A: The NOEL was 300 mg/kg-day.

Q: Which results are given for Nc1ccc(C=Cc2ccc(N)cc2S(=O)(=O)[O-])c(S(=O)(=O)[O-])c1.[Na+].[Na+] [4,4'-Diamino-2,2'-stilbenedisulfonic acid, disodium salt]?
A: LOAEL (Mus musculus; [11]): 50000 ppm; NOAEL (Mus musculus; [11]): 25000 ppm; LOAEL (Mus musculus; [12]): 4920 mg/kg-day; NOAEL (Mus musculus; [12]): 2460 mg/kg-day; LD50 (Rattus norvegicus [2]; oral, gavage, Wistar): > 5000 mg/kg; LOAEL (Rattus norvegicus [2]; [13]): 1950 mg/kg-day; NOAEL (Rattus norvegicus [2]; [13]): 975 mg/kg-day; LOAEL (Rattus norvegicus [2]; [14]): 50000 ppm; NOAEL (Rattus norvegicus [2]; [14]): 25000 ppm; LOAEL (Rattus norvegicus [2]; [15]): 4800 mg/kg-day; NOAEL (Rattus norvegicus [2]; [15]): 2400 mg/kg-day; NOEL (Rattus norvegicus [3]): < 600 mg/kg-day

Q: For NNS(=O)(=O)c1ccc(Oc2ccc(S(=O)(=O)NN)cc2)cc1 [4,4'-Oxybis(benzenesulfohydrazide)], which LD50 (Mus musculus; injection, Intraperitoneal) is on record?
A: The LD50 was greater than 5000 mg/kg.

Q: What about the LD50 (Rattus norvegicus [2]; oral) of the same molecule?
A: The LD50 was 2300 mg/kg.

Q: And the LD50 (Rattus norvegicus [2]; oral, albino)?
A: The LD50 was greater than 5200 mg/kg.

Q: What about the LOAEL (Rattus norvegicus [2]; chronic, duration: 4 months, oral, gavage) of the same molecule?
A: The LOAEL was 36 mg/kg-day.

Q: With O=[N+]([O-])c1ccc(O)cc1 [4-Nitrophenol] as the molecule, how does the LEL (Rattus norvegicus [1]; uterotrophic, duration: 7 days, injection, subcutaneous, Active) read?
A: The LEL was 10 mg/kg-day.

Q: For C[C@]12C=CC3=C4CCC(=O)C=C4CC[C@H]3[C@@H]1CC[C@@H]2O [17beta-Trenbolone], which LOEL (Rattus norvegicus [1]; [16]) is on record?
A: Its LOEL is 200 mg/kg-day.

Q: What about the NOEL (Rattus norvegicus [1]; [16]) of the same molecule?
A: The NOEL was 100 mg/kg-day.

Q: And the LOEL (Rattus norvegicus [1]; duration: 10 days, oral, gavage, Sprague-Dawley, androgenic)?
A: The LOEL was 40 mg/kg-day.

Q: And the LOEL (Rattus norvegicus [1]; [17])?
A: Its LOEL is 40 mg/kg-day.

Q: What about the NOEL (Rattus norvegicus [1]; [17]) of the same molecule?
A: The NOEL was 8 mg/kg-day.

Q: And the LOEL (Rattus norvegicus [1]; [18])?
A: The LOEL was 40 mg/kg-day.

Q: And the NOEL (Rattus norvegicus [1]; [18])?
A: Its NOEL is 8 mg/kg-day.

Reference: EPA's ToxValDB 9.5
